Laboratory results published in paper PMC4503722, “Novel Phenotypic Outcomes Identified for a Public Collection of Approved Drugs from a Publicly Accessible Panel of Assays” (PLoS ONE, 2015).

How the values were obtained:
[1] = tested on: endothelial tube formation in co-cultures of ECFCs and ADSCs treated with VEGF; assay: cells; format: cell-based, human; settings: for IC50: read-out: VEGF_ADSC\ECFC Angio CD31 TubeArea summarized IC50
[2] = tested on: ECFC/ADSC co-culture cell nuclei number; settings: for IC50: read-out: VEGF_ADSC\ECFC Angio Hoechst NucArea summarized IC50

Row | SMILES | VEGF_ADSC\ECFC Angio CD31 TubeArea IC50/EC50 [1] [µM] | VEGF_ADSC\ECFC Angio Hoechst NucArea IC50/EC50 [2] [µM] | further results
1 | Cc1c(C)c2c(c(C)c1OC(=O)CCC(=O)O)CC[C@@](C)(CCC[C@H](C)CCC[C@H](C)CCCC(C)C)O2 [NCGC00167561-03] | – | – | IC50 [1]: > 10 µM; IC50 [2]: > 10 µM
2 | CCN1CCC[C@H]1CNC(=O)c1c(OC)ccc(Br)c1OC [NCGC00024870-06] | > 10 | > 10 | –
3 | O=C(Nc1ccc([N+](=O)[O-])cc1)Nc1ccc([N+](=O)[O-])cc1 [NCGC00166218-02] | – | – | IC50 [1]: > 10 µM; IC50 [2]: > 10 µM
4 | O=C(O)C1CCC1 [NCGC00253667-01] | – | – | IC50 [1]: > 10 µM; IC50 [2]: > 10 µM
5 | CCOC(=O)[C@H](CCc1ccccc1)N[C@@H](C)C(=O)N1Cc2cc(OC)c(OC)cc2C[C@H]1C(=O)O.Cl [NCGC00263546-01] | > 10 | > 10 | –
6 | O=c1oc2c(O)c(O)cc3c(=O)oc4c(O)c(O)cc1c4c23 [NCGC00017245-10] | > 10 | > 10 | –
7 | COC(=O)C1=C(C)NC(C)=C(C(=O)OC(C)(C)CN(C)CCC(c2ccccc2)c2ccccc2)C1c1cccc([N+](=O)[O-])c1.Cl (stereo not shown) [NCGC00167492-03] | > 10 | > 10 | –
8 | CCOC(=O)C1=C(C)NC(C)=C(C(=O)OCC)C1c1ccccc1/C=C/C(=O)OC(C)(C)C [NCGC00263529-01] | – | – | IC50/EC50, VEGF_ADSC\ECFC Angio CD31 TubeArea (assay number 2) [1]: > 10 µM; IC50/EC50, VEGF_ADSC\ECFC Angio Hoechst NucArea (assay number 3) [2]: > 10 µM
9 | CCCCCCCCCCC[C@@H](C[C@@H]1OC(=O)[C@H]1CCCCCC)OC(=O)[C@H](CC(C)C)NC=O [NCGC00165856-03] | > 10 | > 10 | –
10 | COc1ccccc1OCCNCC(O)COc1cccc2[nH]c3ccccc3c12 (stereo not shown) [NCGC00167832-06] | > 10 | > 10 | –
11 | C/C=C(/C(=C/C)c1ccc(OC(C)=O)cc1)c1ccc(OC(C)=O)cc1 [NCGC00253696-01] | – | – | IC50 [1]: > 10 µM; IC50 [2]: > 10 µM
12 | CN(C)C(=O)Oc1cccc([N+](C)(C)C)c1.[Br-] [NCGC00015730-11] | > 10 | > 10 | –
13 | CCCCc1oc2ccc(NS(C)(=O)=O)cc2c1C(=O)c1ccc(OCCCN(CCCC)CCCC)cc1 [NCGC00188863-02] | 2.754 | 7.561 | –
14 | Cn1ccc2cc3c(cc21)CCN3C(=O)Nc1cccnc1 [NCGC00015917-06] | – | – | IC50/EC50, VEGF_ADSC\ECFC Angio CD31 TubeArea (assay number 2) [1]: > 10 µM; IC50/EC50, VEGF_ADSC\ECFC Angio Hoechst NucArea (assay number 3) [2]: > 10 µM
15 | O=[N+]([O-])c1cc(I)c(O)c(I)c1 [NCGC00166241-02] | – | – | IC50 [1]: > 10 µM; IC50 [2]: > 10 µM
16 | CC[C@@H]1C(=O)OC[C@@H]1Cc1cncn1C [NCGC00023339-16] | > 10 | > 10 | –
17 | O=C1NC2CCCCN2C12CCN(CCCN1c3ccccc3CCc3ccc(Cl)cc31)CC2 (stereo not shown) [NCGC00183853-01] | > 10 | > 10 | –
18 | CCN[C@@H](C)Cc1cccc(C(F)(F)F)c1 [NCGC00247710-02] | > 10 | > 10 | –
19 | O=C1NCN(c2ccccc2)C12CCN(CCCC(c1ccc(F)cc1)c1ccc(F)cc1)CC2 [NCGC00015424-11] | – | – | IC50/EC50, VEGF_ADSC\ECFC Angio CD31 TubeArea (assay number 2) [1]: > 10 µM; IC50/EC50, VEGF_ADSC\ECFC Angio Hoechst NucArea (assay number 3) [2]: 8.086 µM
20 | CC[C@H](C)C(=O)O[C@H]1C[C@H](O)C=C2C=C[C@H](C)[C@H](CC[C@@H](O)C[C@@H](O)CC(=O)O)[C@H]21 [pravastatin, reference compound] | – | – | inhibition of endothelial tube / cord formation (in words) ([1]; ECFC/ADSC co-culture): did not inhibit endothelial tube formation
21 | S=C=Nc1ccc(N=C=S)cc1 [NCGC00166077-02] | – | – | IC50/EC50, VEGF_ADSC\ECFC Angio CD31 TubeArea (assay number 2) [1]: > 10 µM; IC50/EC50, VEGF_ADSC\ECFC Angio Hoechst NucArea (assay number 3) [2]: > 10 µM
22 | CCCOC(=O)c1cc(O)c(O)c(O)c1 [NCGC00164234-04] | – | – | IC50 [1]: > 10 µM; IC50 [2]: > 10 µM
23 | Oc1cc(Cl)ccc1Oc1ccc(Cl)cc1Cl [NCGC00159417-05] | – | – | IC50 [1]: > 10 µM; IC50 [2]: 8.1 µM
24 | O=C(c1ccc(F)cc1)C1CCN(CCn2c(=O)[nH]c3ccccc3c2=O)CC1 [NCGC00021146-09] | > 10 | > 10 | –
25 | OC[C@@H](O)[C@@H](O)[C@H](O)[C@@H](O)CO [NCGC00164353-05] | > 10 | > 10 | –
